Consider 6 compounds from patent US5286735A, “Derivatives of 4-aminomethylpiperidine, their preparation and their use as therapeutics” (Pierre Fabre Medicament, priority 1991, dated 1994).

Each structure is given as a SMILES string.

This experiment has as its target T1, serotoninergic 5-HT1A receptors (Rattus norvegicus, UniProt P19327).
T1 construct: The hippocampus is crushed with Polytron; from tissue; host or cells: rat hippocampus membranes (male Charles River rats)
T1 sequence (P19327 1-422): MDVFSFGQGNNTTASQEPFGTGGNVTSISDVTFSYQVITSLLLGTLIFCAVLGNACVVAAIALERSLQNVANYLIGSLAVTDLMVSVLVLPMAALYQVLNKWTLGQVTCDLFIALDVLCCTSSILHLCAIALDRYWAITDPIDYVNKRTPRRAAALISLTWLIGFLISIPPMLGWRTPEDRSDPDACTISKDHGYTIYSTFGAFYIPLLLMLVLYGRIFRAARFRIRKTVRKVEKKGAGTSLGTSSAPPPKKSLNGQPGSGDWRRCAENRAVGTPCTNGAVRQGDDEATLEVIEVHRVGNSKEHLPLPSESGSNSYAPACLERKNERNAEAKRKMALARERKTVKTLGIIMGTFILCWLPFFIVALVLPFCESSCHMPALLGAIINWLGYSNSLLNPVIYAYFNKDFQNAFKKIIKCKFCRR
The experiment can be described thus: 5-HT1A binding studies (3H-8-OH-DPAT ligand, rat hippocampus membranes). Also on record: species or system rat (male Charles River). Conditions: 3H-8-OH-DPAT 1 nM, 30 min at 25° C. Here is the method: The 5-HT1A binding studies were carried out in accordance with Peroutka's technique (see: Peroutka, S. J.: J. Neurochem. 47:529-540, 1986). Male Charles River rats are stunned and decapitated, the brain is removed and dissected. The different cerebral areas obtained are used or preserved at minus 20° C. The hippocampus is crushed with Polytron® (20 seconds at 7) in 20 volumes of 50 mM Tris-HCl buffer (pH 7.7 at 25° C.) and centrifuged at 45,000 g for 10 min. The residue is separated, taken up in the same volume of Tris buffer and incubated for 10 min at 37° C., and then again centrifuged for 10 min at 45, 000 g. The residue is then taken up in 100 volumes of Tris-HCl buffer containing 10 μm of Pargyline, 4 mM CaCl2 and 0.1% ascorbic acid. The mixture obtained is Dounce homogenized.
The binding is effected starting with 0.8 ml of the above membrane suspension to which 0.1 ml of ^3 H-8-OH-DPAT ligand is added (in a concentration of 1 nM) and either 0.1 ml of Tris buffer (control) or the compound of the present invention is added. After incubation for 30 min at 25° C., the mixture is filtered on GF/B (Whatman) and rinsed with 5 ml of iced Tris-HCl buffer. The residue and the filter are finally introduced into a vial containing 3 ml of Instage® scintillating liquid (Packard) and the radioactivity is measured with a Packard counter (Tri-Carbs®). The IC50 are determined graphically for a ligand concentration of 1 nM.
In turn, `Clc1cccc(CN2CCC(CNCC3COc4ccccc4O3)CC2)c1` (stereo not drawn) [Compound 22, 1-(3-Chlorobenzyl) 4-(1,4-benzodioxan-2-ylmethylaminomethyl) piperidine] came in with an IC50 of 2.1 nM. That is a single-digit nanomolar value. The result for `O=C(c1ccccc1)N1CCC(CNCC2COc3ccccc3O2)CC1` (stereo not drawn) [Compound 9, 1-Benzoyl 4-(1,4-benzodioxan-2-ylmethylaminomethyl) piperidine] reads 3 nM; that for `Cc1cccc(C(=O)N2CCC(CNCC3Cc4ccccc4O3)CC2)c1` (stereo not drawn) [Compound 3, 1-(3-Methylbenzoyl) 4-[(2,3-dihydrobenzofuran-2-yl)methylaminomethyl] piperidine], 7.5 nM; that for `Cc1ccc(CN2CCC(CNCC3COc4ccccc4O3)CC2)cc1` (stereo not drawn) [Compound 17, 1-(4-Methylbenzyl) 4-(1,4-benzodioxan-2-ylmethylaminomethyl) piperidine], 4.4 nM. The result for `Cc1cccc(C(=O)N2CCC(CNCC3CCc4ccccc4C3)CC2)c1` (stereo not drawn) [Compound 5, 1-(3-Methylbenzoyl) 4-[(1,2,3,4-tetrahydronaphthalen-2-yl)methylaminomethyl] piperidine] reads 12.5 nM; that for `Cc1cccc(C(=O)N2CCC(CNCC3CCc4ccccc4O3)CC2)c1` (stereo not drawn) [Compound 7, 1-(3-Methylbenzoyl) 4-[(3,4-dihydro 2[H].1-benzopyran-2-yl)methylaminomethyl] piperidine], 3.8 nM.

As usually defined, the IC50 is the concentration that inhibits the measured activity by half. Low values mean higher potency, high ones lower potency.
